According to paper PMC6366974, “The curcumin analog EF24 is a novel senolytic agent” (Aging (Albany NY), 2019):

Legend:
[1] = system: HUVEC Rep-SCs; experiment: Cell viability assay (flow cytometry, PI); type: cell-based; conditions: Homo sapiens, 72 h
Protocol: Human WI-38 fibroblasts (WI-38, Cat. No. CCL-75), human IMR-90 fibroblasts (IMR-90, Cat. No. CCL-186), human umbilical vein endothelial cells (HUVEC, Cat. No. CRL-1730), human renal epithelial cells (HREC, Cat. No. PCS-400-012) and human pre-adipocytes (Cat. No. PCS-210-010) were newly purchased from the American Type Culture Collection (ATCC, Manassas, VA, USA). WI-38 and IMR-90 cells were cultured in complete Dulbecco’s modified Eagle medium (DMEM, Cat. No. 12430054, Thermo Fisher Scientific, Waltham, MA, USA) supplemented with 10% heat-inactivated fetal bovine serum (FBS, Cat. No. S11150H, Atlanta Biologicals, Flowery Branch, GA, USA), 100 U/mL penicillin and 100 µg/mL streptomycin (Pen Strep, Cat. No. 15140122, Thermo Fisher Scientific, Waltham, MA, USA) in a humidified incubator at 37°C and 5% CO2. HUVEC were cultured in EGM-2 BulletKit (Cat. No. CC-3162, Lonza, Basel, Switzerland) containing basal medium supplemented with growth factors, cytokines and other supplements according to the manufacturer’s protocol. HREC were cultured in renal epithelial cell basal medium (Cat. No. PCS-400-030, ATCC, Manassas, VA, USA) supplemented with renal epithelial cell growth kit (Cat. No. PCS400040, ATCC, Manassas, VA, USA). Human pre-adipocytes were cultured in fibroblast basal medium (Cat. No. PCS-201-030, ATCC, Manassas, VA, USA) supplemented with fibroblast growth kit-low serum (Cat. No. PCS201041, ATCC, Manassas, VA, USA). EF24 (Cat. No. E8409) and HO-3867 (Cat. No. S7501) were purchased from Sigma-Aldrich (St. Louis, MO, USA) and Selleckchem (Houston, TX, USA), respectively. DIMC (Cat. No. 10009986) and 2-HBA (Cat. No. 11879) were both purchased from Cayman Chemical (Ann Arbor, MI, USA).
Three different methods were used for the induction of SCs, including replicative exhaustion, ionizing radiation and ectopic Ras expression as previously described. Briefly, low-passage WI-38 cells (< 25 passages), IMR-90 cells (< 25 passages), HUVEC (< 10 passages), HREC (< 10 passages) and pre-adipocytes (< 4 passages) were used as NCs or for the induction of senescence. To induce replicative senescence (Rep-SCs), WI-38 and IMR-90 fibroblasts, HUVEC, HREC and pre-adipocytes were subcultured until they stopped to divide and became permanently growth arrested senescence after 38 passages (WI-38), 38 passages (IMR-90), 22 passages (HUVEC), 30 passages (HREC) and 10 passages (pre-adipocytes), respectively. To induce SCs by ionizing radiation (IR-SCs) and ectopic expression of Ras (Ras-SCs), WI-38 NCs were treated as previously described.
Number of viable cells were quantified using flow cytometry as previously described with slight modifications. Specifically, NCs and SCs were incubated with vehicle (0.1% DMSO) or a test compound at indicated concentrations for 72 h. Following dissociation with 0.25% Trypsin-EDTA (Cat. No. 25200056, Thermo Fisher Scientific, Waltham, MA, USA) at 37°C for 5 min, the cells were harvested in 100 µl pre-cooled phosphate buffered saline (PBS, Cat. No. 20012027, Thermo Fisher Scientific, Waltham, MA, USA) containing 2% FBS and 100 ng/mL propidium iodide (PI, P4170, Sigma-Aldrich, St. Louis, MO, USA) and analyzed using flow cytometry (LSR II, BD Biosciences, San Jose, CA, USA). Percentage of viable cells were determined by counting the number of PI negative cells (viable cells) and then calculated as a ratio of control cells treated with vehicle. In addition, dose-response curves were generated for each compound, and the concentration for 50% of maximal effect (EC50 values) was calculated using GraphPad Prism 6.

[2] = system: BCL-XL, MCL-1 and BCL-2 mRNA; experiment: qPCR of mRNA levels in WI-38 cells; type: cell-based, human; conditions: WI-38 NCs and IR-SCs, 72 h
Protocol: The mRNA levels were measured with qPCR, as previously described. qPCR was run with TaqMan qPCR (Cat. No. 4444965, Thermo Fisher Scientific, Waltham, MA, USA) reagents and primers (Cat. No. 4331182, Thermo Fisher Scientific, Waltham, MA, USA).

[3] = system: WI-38 NCs; experiment: ROS measurement (DHR staining, flow cytometry); type: cell-based, human; conditions: 2 µM, 3 h and 6 h, DHR MFI
Protocol: (§1) WI-38 NCs and IR-SCs were incubated with vehicle or 2 µM EF24 for 3, 6, 24, or 72 h. After removal of suspension cells, adherent cells were detached using 0.25% Trypsin-EDTA at 37°C for 5 min. They were rinsed with DMEM once and then incubated with pre-warmed DMEM medium containing 1 µM dihydrorhodamine 123 (DHR, Cat. No. D23806, Thermo Fisher Scientific, Waltham, MA, USA) at 37°C for 30 min in dark. After washing in 4 mL DMEM with 100 ng/mL PI, cells were centrifuged immediately at 1,000 r.p.m. for 5 min to remove PI and re-suspended in DMEM medium for flow cytometry analysis. Mean fluorescence intensity (MFI) of PI negative cells was determined using the BD LSR II flow cytometer.

[4] = system: WI-38 IR-SCs; experiment: ROS measurement (DHR staining, flow cytometry); type: cell-based, human; conditions: 2 µM, 3 h and 6 h, DHR MFI
Protocol: as §1

**Q.** `O=C1/C(=C/c2ccccc2F)CNC/C1=C\c1ccccc1F` [EF24] was tested. Which EC50 [1] did it give?
**A.** 0.77 µM

**Q.** And the “BCL-XL, MCL-1 and BCL-2 mRNA levels” value [2]?
**A.** did not observe any significant changes

**Q.** And the “ROS production in NCs” value [3]?
**A.** did not increase ROS production

**Q.** What about the “ROS production in IR-SCs” value [4] of the same compound?
**A.** did not increase ROS production
